The results in this text go back to US20230118682A1, “MODIFIED J-AGGREGATES AND CONJUGATES THEREOF” (GEORGE MASON UNIVERSITY, priority 2021, published 2023).

“And” between values parts separate entries of the source, which are not always exact repeats. Identical values can stand only once.

A short description of data set [1]: Fluorescence measurements. The class given is physicochemical. The following applies: excitation 720 nm, emission 770-850 nm. On the procedure: Fluorescence measurements: Fluorescence intensity of different concentrations of free ICG dye and J-aggregates was recorded using a Tecan Safire^2™ (Mannendorf, Switzerland) fluorescence microplate reader. Both free ICG dye and J-aggregate particles were excited at 720 nm with an emission at 770 nm. The fluorescence emission spectrum was recorded from 770 to 850 nm with a step size of 2 nm.

Data set [2] can be described thus: Photoacoustic signal relative to whole blood. Details: species or system sheep. The following applies: 20 μM, excited at 895 nm, PTFE tubing. As for the experimental part: Photoacoustic Measurement: The 96-well plate was secured to the bottom of a plastic water reservoir. The reservoir was filled with deionized water, completely submerging the sample. For comparison of smaller volumes, 2-inch segments of 24-gauge PTFE tubing ([…]) was filled with various samples. The tubes were placed in a clear acrylic chamber submerging the samples in deionized water. A single element piezoelectric 35 MHz or 5 MHz focused transducer (V326, Olympus, Mass., USA) was fixed at 12 mm or 45 mm above each sample with their functional element submerged in deionized water. […] The photoacoustic signal recorded from the transducer is sent to a 20/40db amplifier (HVA-200M, Femto) from there the signal is recorded through a lock-in amplifier (Zurich Instruments, Zurich, Switzerland) triggered on each laser pulse using a photodiode placed near the laser source. […] The absolute amplitude of each waveform was calculated, averaged, and normalized to the signal recorded from India ink or whole sheep's blood containing anticoagulant.
To explore the possibility of using JAAZ in vivo, the photoacoustic signal was compared to whole blood. […] PA signals were recorded from each sample and the signal amplitude was normalized to the whole-blood PA-signal amplitude (FIG. 5D). […]
The in-vitro photoacoustic (PA) properties of the N-JAAZ particles were further evaluated. […]

Data set [3] in a line: Phantom PA spectra on TriTom imaging system. As to conditions: 0.4 mM in microcuvette tubes. As for the experimental part: (§1) We first acquired multiwavelength images of microcuvette tubes containing 0.4 mM of ICG dye or RGD-JAAZ particles to evaluate the PA spectra of both contrast agents. […] For in vivo imaging experiments, multispectral PAI were acquired in two female nu/nu nude mice at various timepoints (0, 10, 90 min) following tail-vein administration of ICG dye and RGD-JAAZ particles (FIGS. 39A-39D). A pre-injection baseline PA signal at 895 nm was also acquired for reference (FIG. 39B). […] Molecular maps were generated from a linear spectral unmixing of the multiwavelength PA images using previously reported spectra for hemoglobin and the measured spectra of the RGD-JAAZ particles at their injection concentration.

A short description of data set [4]: in vivo. On the procedure:
as §1

Turning to `CC1(C)C(/C=C/C=C/C=C/C=C2\N(CCCCS(=O)(=O)O)c3ccc4ccccc4c3C2(C)C)=[N+](CCCCS(=O)(=O)[O-])c2ccc3ccccc3c21` [ICG, Indocyanine Green], in data set [1], the fluorescence emission entry was “recordable fluorescence intensity”. In addition, the “PA signal relative to whole blood” value in data set [2] was ~0.03 x. Further, the “peak PA signal wavelength (phantom)” value in data set [3] was 740 nm and 780 nm. The Contrast-to-noise ratio in data set [4] (blood vessels, 90-minutes post-injection, n=2) turned out to be 1.59. Moreover, the half-life in data set [4] (female, nu/nu nude, mouse, in vivo) worked out at 1.19 ± 0.45 min.

The term half-life denotes how long it takes for the measured level to halve. Lower therefore signals rapid decline.
